For series [1], the system named is NPCs of micropore-supported nuclear envelope (NE). The series can be described thus: Steady-state SECM approach-curve measurement of NPC permeability to GRn. Format: in vitro ADME, Xenopus laevis. Conditions: SECM approach curve at centre of micropore-supported NE patch, 10 μm-diameter micropipet, MIB; 8.6 μM GR25 or 130 μM GR5; finite element fit, homogeneous model; fit uncertainty ±20%. Here is the method: The nucleus was isolated from the stage VI oocyte of an adult female X. laevis frog (Ecocyte Bioscience, Austin, Texas) to spread the NE on a microporous Si3N4 membrane, as reported elsewhere.[24] The large nucleus (∼0.4 mm in diameter) was isolated in the isotonic 1.5% PVP solution of mock intracellular buffer (MIB) at pH 7.4. MIB contains 90 mM KCl, 10 mM NaCl, 2 mM MgCl2, 1.1 mM EGTA, 0.15 mM CaCl2, and 10 mM HEPES, where free Ca^2+ was buffered at the physiological level of ∼200 nM in oocytes.[39] The spread NE was adhered to the membrane treated with Cell-Tak (Corning, Corning, New York).
A home-built SECM instrument[40] with a potentiostat (CHI 7042E, CH Instruments, Austin, Texas) was controlled by using a custom LabVIEW program (National Instruments, Austin, Texas).[41] Tapered micropipets were obtained from borosilicate glass capillaries (o.d./i.d. = 1.0 mm/0.58 mm, 10 cm in length) using a CO2-laser capillary puller (model P-2000 Sutter Instrument, Novato, California). […]
We employed DNNS-doped micropipets to measure the similar steady-state permeability of the NPCs to GRn. […] The strong transient response to GR25 is attributed to the dissociation of GR25 from the NPC as induced by an SECM tip and was investigated quantitatively by chronoamperometry below to confirm strong NPC–GR25 interactions. […]

The conditions of series [2]: extra-thermodynamic assumption (tetraphenylarsonium/tetraphenylborate); cited from earlier work. From the text: We calibrated the potential of the NB phase against the aqueous phase by using an extra-thermodynamic assumption (Figure 3) to calculate the free energy change in GRn transfer, as discussed later. Specifically, it was assumed that the free energies of tetraphenylarsonium and tetraphenylborate transfer across the interface are identical.[36] […] Half-wave and formal potentials are identical for electrochemically reversible transfer of tetrabutylammonium.

Turning to `N=C(N)NCCC[C@H](NC(=O)CNC(=O)[C@H](CCCNC(=N)N)NC(=O)CNC(=O)[C@H](CCCNC(=N)N)NC(=O)CNC(=O)[C@H](CCCNC(=N)N)NC(=O)CNC(=O)[C@H](CCCNC(=N)N)NC(=O)CNC(=O)[C@H](CCCNC(=N)N)NC(=O)CNC(=O)[C@H](CCCNC(=N)N)NC(=O)CNC(=O)[C@H](CCCNC(=N)N)NC(=O)CNC(=O)[C@H](CCCNC(=N)N)NC(=O)CNC(=O)[C@H](CCCNC(=N)N)NC(=O)CNC(=O)[C@H](CCCNC(=N)N)NC(=O)CNC(=O)[C@H](CCCNC(=N)N)NC(=O)CNC(=O)[C@H](CCCNC(=N)N)NC(=O)CNC(=O)[C@H](CCCNC(=N)N)NC(=O)CNC(=O)[C@H](CCCNC(=N)N)NC(=O)CNC(=O)[C@H](CCCNC(=N)N)NC(=O)CNC(=O)[C@H](CCCNC(=N)N)NC(=O)CNC(=O)[C@H](CCCNC(=N)N)NC(=O)CNC(=O)[C@H](CCCNC(=N)N)NC(=O)CNC(=O)[C@H](CCCNC(=N)N)NC(=O)CNC(=O)[C@H](CCCNC(=N)N)NC(=O)CNC(=O)[C@H](CCCNC(=N)N)NC(=O)CNC(=O)[C@H](CCCNC(=N)N)NC(=O)CNC(=O)[C@H](CCCNC(=N)N)NC(=O)CNC(=O)[C@H](CCCNC(=N)N)NC(=O)CN)C(=O)O` [GR25], in series [1], the “steady-state permeability, kss, through the NE” value was 7.2 × 10^–3 cm/s.
Consider `CCCC[N+](CCCC)(CCCC)CCCC` [tetrabutylammonium], for which, in series [2], the “formal potential of transfer across the NB/water interface” value is 0.29 V.

The values are drawn from PMC11822746, “Nanoscale Hydrophobicity of Transport Barriers in the Nuclear Pore Complex as Compared with the Liquid/Liquid Interface by Scanning Electrochemical Microscopy” (Analytical Chemistry, 2025).
